Test results taken from PubChem BioAssay (NCI).
Where “and” joins values, the source holds several entries; their conditions need not be identical. Identical values can stand only once.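 These data come from cells grown in 96-well plates and exposed to compound for 48 hours at five concentrations. GI50: concentration for 50% inhibition of growth. TGI: concentration producing complete growth inhibition.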

What was measured:
Experiment in all cases: inhibition of tumour cell growth, NCI panel, 48 h
CAKI-1 renal = test system: CAKI-1 renal
HCT-15 colon = test system: HCT-15 colon
IGROV1 ovarian = test system: IGROV1 ovarian
KM12 colon = test system: KM12 colon
M14 melanoma = test system: M14 melanoma
MDA-MB-435 = test system: MDA-MB-435
SK-MEL-5 melanoma = test system: SK-MEL-5 melanoma
SNB-75 CNS = test system: SNB-75 CNS
SR leukemia = test system: SR leukemia
TK-10 renal = test system: TK-10 renal

Compound	TGI (CAKI-1 renal)	TGI (HCT-15 colon)	TGI (IGROV1 ovarian)	TGI (KM12 colon)	TGI (M14 melanoma)	TGI (MDA-MB-435)	TGI (SK-MEL-5 melanoma)	TGI (SNB-75 CNS)	TGI (SR leukemia)	TGI (TK-10 renal)	GI50 (HCT-15 colon)	GI50 (SR leukemia)	GI50 (CAKI-1 renal)	GI50 (IGROV1 ovarian)	GI50 (KM12 colon)	GI50 (M14 melanoma)	GI50 (MDA-MB-435)	GI50 (SK-MEL-5 melanoma)	GI50 (SNB-75 CNS)	GI50 (TK-10 renal)
[N-]=[N+]=Nc1c([N+](=O)[O-])c(=O)n2c3c(cccc13)CCC2	27.9 µM	17.8 µM	41 µM	34.8 µM	26.2 µM	31.2 µM	30.3 µM	38.1 µM	5.9 µM	34.3 µM										
Oc1cc(Br)cc2cc(Cl)cnc12	85.9 µM	> 100 µM	27.1 µM	> 42.7 µM	10.4 µM	> 67.7 µM	15.4 µM	> 90.3 µM	> 30.2 µM	> 94.3 µM										
COc1cc(CS(=O)c2ccc(O)cc2)cc(OC)c1OC (configuration not stated)	> 100 µM	> 100 µM	> 100 µM	> 100 µM	> 100 µM	> 100 µM	> 100 µM	> 100 µM	> 100 µM	> 100 µM										
CCCCCCCCCCCCCC(=O)N(CCCCCCCCC)CC(O)C(O)C(OC1OC(CO)C(O)C(O)C1O)C(O)CO (configuration not stated)	30.6 µM	49.7 µM	38.1 µM	37.1 µM	40.8 µM	34.6 µM	34.7 µM	37.3 µM	46.2 µM	33.7 µM										
CC(=O)Nc1ccccc1NC1CC(C)N(c2ccccc2)N1C(C)=O (configuration not stated)	> 10 µM	> 10 µM	> 10 µM	> 10 µM	> 10 µM	> 10 µM	> 10 µM	> 10 µM	> 10 µM	> 10 µM										
OC1C[C@H](c2ccccc2)C2(C(O)c3ccccc3C2O)[C@@H](c2ccccc2)C1 (some centres not stated)	> 100 µM	> 100 µM	> 100 µM	> 100 µM	> 100 µM	> 100 µM	> 100 µM	> 100 µM	68.1 µM	> 100 µM										
Brc1ccc2c(-c3csc(-c4c[nH]c5ccccc45)n3)c[nH]c2c1	33.4 µM	28.5 µM	26.6 µM	34.7 µM	27.3 µM	32.9 µM	28.6 µM	46.4 µM	21.7 µM	27.5 µM	15.2 µM	6.36 µM								
CC(=O)/C(=C/N1CCNC1=S)C(=O)Nc1ccccc1C	> 100 µM	> 100 µM	> 100 µM	> 100 µM	> 100 µM	> 100 µM	> 100 µM	> 100 µM	> 100 µM	> 100 µM										
COC(=O)C1=C(C(=O)OC)SC2(S1)C(C(=O)OC)=C(C(=O)OC)Sc1c2ssc1=NC(C)(C)C	4.01 µM	2.19 µM	3.16 µM	3.91 µM	3.15 µM	3.08 µM	4.92 µM	2.92 µM	1.91 µM	3.27 µM										
COc1ccc(N2NC(c3ccccc3)(c3ccccc3)C(C)C2=O)cc1 (configuration not stated)	> 100 µM	> 100 µM	> 100 µM	> 100 µM	> 100 µM	> 100 µM	> 100 µM	> 100 µM	> 100 µM	> 100 µM										
CCOC(=O)/C=C(\C(=O)OCC)n1ccc(=O)[nH]c1=O	3.52 µM	21.5 µM	30.1 µM	35.2 µM	31.4 µM	38 µM	> 56.7 µM	35.3 µM	29.7 µM	26.2 µM										
Cc1ccc([N+](=O)[O-])c2c(NCC(O)CO)ccnc12 (configuration not stated)	> 100 µM	> 100 µM	> 100 µM	> 100 µM	> 100 µM	> 100 µM	42.3 µM	> 100 µM	> 100 µM	> 100 µM										
Cc1sc2nc3n(c(=O)c2c1C)N=CN(c1ccc(F)cc1)C3	> 100 µM	> 100 µM	> 100 µM	> 100 µM	> 100 µM	> 100 µM	> 100 µM	> 100 µM	> 100 µM	> 100 µM										
Fc1cc(-c2cc(-c3ccc4c(c3)OCO4)n[nH]2)c(Cl)cc1Cl	10.8 µM	49.1 µM	7.5 µM	> 22.7 µM	18.3 µM	30.9 µM	21 µM	3.68 µM	> 50.1 µM	7.06 µM										
c1ccc(CN2CCN3CCN(CC2)CCN(Cc2ccccc2)CC3)cc1	> 88.3 µM	> 88.8 µM	22.1 µM	14.6 µM	19.6 µM	12.6 µM	4.96 µM	18.2 µM	16.5 µM	23.5 µM										
CC1=NN(c2nc(N)nc(CF)n2)C(C)(C)C1	> 100 µM	> 100 µM	> 100 µM	> 100 µM	> 100 µM	> 100 µM	> 100 µM	> 100 µM	> 100 µM	> 100 µM										
CCC(NC1=NCCO1)c1cccs1 (configuration not stated)	30.9 µM	30.2 µM	39.3 µM	36 µM	33.3 µM	27.6 µM	30.6 µM	16.9 µM	> 100 µM	29.9 µM										
COc1ccc(-c2nn(-c3ccc(NC(=O)Nc4ccc(Cl)c(C(F)(F)F)c4)cc3)cc2-c2ccncc2)cc1Cl	5.18 µM	3.03 µM	63.1 µM	4.34 µM	3.13 µM	4.8 µM	2.82 µM	7.86 µM	5.96 µM	5.27 µM	1.12 µM	1.86 µM	1.78 µM	2.16 µM	1.22 µM	1.49 µM	1.79 µM	1.5 µM	1.36 µM	1.41 µM
CC1(C)CCc2c(c(N=Nc3ccc(F)cc3)c3ccccc3c2O)O1	> 100 µM	> 100 µM	> 100 µM	> 100 µM	39.9 µM	32 µM	21.1 µM	48.6 µM	77.4 µM	> 100 µM										
O=C1C(=Cc2ccc(Cl)c(Cl)c2)C([O-])=C([P+](c2ccccc2)(c2ccccc2)c2ccccc2)C([O-])=C1[P+](c1ccccc1)(c1ccccc1)c1ccccc1	6.78 µM	13.8 µM	6.34 µM	4.66 µM	6.66 µM	5.59 µM	5.24 µM	15.9 µM	11.6 µM	5.6 µM										
C=C1CN(C2=NCCO2)C1	> 100 µM	> 100 µM	> 100 µM	> 100 µM	> 100 µM	> 100 µM	> 100 µM	> 100 µM	> 100 µM	> 100 µM										
CCN1CCC(O)(/C=C/c2ccc(C(C)C)cc2)C(C(=O)/C=C/c2ccc(C(C)C)cc2)C1 (configuration not stated)	8.86 µM	4.63 µM	6.79 µM	4.87 µM	> 40.5 µM	8.99 µM	12.7 µM	11.7 µM	> 20.9 µM	6.16 µM										
S=c1[nH]c2ccc(I)cc2c(=S)n1Cc1ccccc1	> 100 µM	23.3 µM	27.6 µM	50.7 µM	31.6 µM	> 100 µM	13.2 µM	13.7 µM	14.9 µM	30.8 µM										
C=C(c1ccccc1)c1ccccc1-c1cc(-c2ccccc2)cc(-c2ccccc2)n1	> 100 µM	> 100 µM	> 100 µM	> 100 µM	> 100 µM	> 100 µM	> 100 µM	> 100 µM	> 100 µM	> 100 µM										
O=c1[nH]c(=S)c2cc3c(=S)[nH]c(=O)n(CCO)c3nc2n1CCO	> 100 µM	> 100 µM	> 100 µM	> 100 µM	> 100 µM	> 100 µM	> 100 µM	> 100 µM	> 100 µM	> 100 µM										
Cn1c(O)c(C=Nc2ccccc2Cl)c(=O)n(C)c1=O	> 100 µM	41.4 µM	> 100 µM	> 100 µM	48.9 µM	> 100 µM	> 100 µM	> 100 µM	55.9 µM	> 100 µM										
Cc1ccc(NC(=O)CSC(N)=O)cc1C	> 100 µM	> 100 µM	> 100 µM	> 100 µM	> 100 µM	> 100 µM	> 100 µM	> 100 µM	> 100 µM	> 100 µM										
Cc1cn(S(=O)(=O)c2ccccc2)c2c(OCc3ccccc3)cc(NS(C)(=O)=O)cc12	> 100 µM	> 100 µM	> 100 µM	> 100 µM	> 100 µM	> 100 µM	16.6 µM	> 100 µM	> 100 µM	> 100 µM										
CN(C)/N=N/c1nc[nH]c1C(N)=O	71.7 µM and 539 µM	> 1000 µM		> 1000 µM	> 1000 µM	> 1000 µM	96.2 µM and > 429 µM	82.2 µM and > 763 µM	> 1000 µM	828 µM	73.8 µM	64.4 µM		129 µM	> 156 µM	92.8 µM	31.4 µM	120 µM	126 µM	46.8 µM
C=C(C(=O)O[C@H]1C(=O)C2=C(C)CCC3C(=C)C(=O)O[C@@H]3C2[C@]1(C)O)C1CC[C@]2(C)CCCC(=C)[C@H]2C1 (some centres not stated)	10.2 µM and 25.3 µM	8.77 µM and 12.8 µM	13.8 µM and 11.3 µM	20.5 µM	12.3 µM and 20.3 µM	10.1 µM and 8.5 µM	15.8 µM and 29.7 µM	8.05 µM and 6.71 µM	> 100 µM	12.3 µM and 6.78 µM	1.92 µM		3.67 µM	7.28 µM		5.74 µM		8.45 µM	2.42 µM	6 µM
